US11879145B2, “Reagents and methods for replication, transcription, and translation in semi-synthetic organisms” (The Scripps Research Institute, priority 2019, dated 2024)
“And” between values parts separate entries of the source, which are not always exact repeats. Equal entries are not always repeated. “Also recorded” adds a separate entry of the source.

Experiments:
sfGFP^151(AXC) [1] = experiment: Bulk culture sfGFP fluorescence normalized to cell growth (in vivo screen of dXTPs); assay type: cell-based, E. coli; conditions: for sfGFP fluorescence normalized to cell growth: AzK added
Procedure: (§1) These plasmids were used to transform E. coli expressing the nucleoside triphosphate transporter PtNTT2 (strain YZ38) and harboring a plasmid encoding Mb PylRS. After transformation, colonies were selected and grown to an OD600˜1.0 in liquid media supplemented with dTPT3TP (10 μM) and one of seven different dXTPs (FIG. 2) added at varying concentrations (150 μM, 10 μM, or 5 μM). Cells were then diluted into fresh expression media containing the same unnatural deoxyribonucleotides as well as NaMTP (250 μM), TPT3TP (30 μM), and AzK (10 mM). After a brief incubation, T7 RNAP and tRNAPyl(GYT) expression was induced by the addition of isopropyl-β-d-thiogalactoside (IPTG, 1 mM). After an additional 1 h of incubation, the expression of sfGFP^151(AXC) was initiated by the addition of anhydrotetracycline (aTc, 100 ng/mL).
Analysis of reporter protein production. To characterize the amount of protein produced, bulk culture fluorescence normalized to cell growth was measured 2.5 h after the induction of protein expression (FIG. 3C). […] Cells growth was not observed when provided with only 5 μM dNaMTP. While similar at high concentrations, at lower concentrations the use of each dXTP analog results in a greater AzK-dependent increase in fluorescence than does the use of dNaMTP.
Ten-fold dilutions of the glycerol stock were re-plated onto solid growth media supplemented with dNaMTP (150 μM), dTPT3TP (10 μM), and 2% w/v agar, then grown at 37° C. overnight. Single colonies were picked and grown in growth media (300 μL) supplemented with corresponding dXTP (various concentrations), and dTPT3TP (10 μM), then monitored for cell growth and collected at an OD600˜1.0. Once all samples were collected, samples were left on ice overnight. The samples were then re-diluted to OD600˜0.1, to a final volume of 300 μL and provided with the corresponding dXTP (various concentrations), and dTPT3TP (10 μM). […] From this point on, cells were monitored for growth and fluorescence. […]

sfGFP^151(AXC) [2] = experiment: Fidelity of AzK incorporation into sfGFP, DBCO-TAMRA gel shift / western blot (in vivo screen of dXTPs); assay type: cell-based, E. coli
Procedure: Analysis of reporter protein fidelity. To directly assess the fidelity of unnatural protein production, cells were harvested 2.5 h after the induction of protein expression and the sfGFP produced was purified and subjected to a strain-promoted azide-alkyne cycloaddition reaction with dibenzocyclooctyne (DBCO) linked to a TAMRA dye by four PEG units. In addition to tagging the proteins containing the ncAA with a detectable fluorophore, conjugation produces a shift in electrophoretic migration, allowing quantification of protein containing AzK as a percentage of the total protein produced (i.e. fidelity of ncAA incorporation; FIG. 3D).
Ten-fold dilutions of the glycerol stock were re-plated onto solid growth media supplemented with dNaMTP (150 μM), dTPT3TP (10 μM), and 2% w/v agar, then grown at 37° C. overnight. Single colonies were picked and grown in growth media (300 μL) supplemented with corresponding dXTP (various concentrations), and dTPT3TP (10 μM), then monitored for cell growth and collected at an OD600˜1.0. Once all samples were collected, samples were left on ice overnight. The samples were then re-diluted to OD600˜0.1, to a final volume of 300 μL and provided with the corresponding dXTP (various concentrations), and dTPT3TP (10 μM). The remaining culture not used was pelleted and stored at −80° C. for subsequent plasmid isolation using the ZR Plasmid Prep Kit (Zymo Research) to determine UBP retention. When cultures reached an OD600˜0.4-0.6, they were provided with NaMTP (250 μM) and TPT3TP (30 μM), and AzK (10 mM) (or ddH2O for cultures grown in the absence of AzK). Samples were shielded from light after addition of AzK to prevent photodegradation. These samples were then grown at 37° C. for 20 min before adding 1 mM IPTG and grown at 37° C. for an additional 1 h to induce T7 RNAP and transcription of tRNAPyl and PylRS. From this point on, cells were monitored for growth and fluorescence. Expression of sfGFP was then induced with anhydrotetracycline (100 ng/mL).
Affinity Purification of sfGFP. Cell pellets collected from translation experiments were resuspended in BugBuster (100 μL 1×, EMD Millipore) and shaken at room temperature for 15 min. The cell lysate was then diluted with Buffer W (380 μL; 50 mM HEPES pH 8, 150 mM NaCl, 1 mM EDTA) and magnetic Strep-Tactin beads (20 μL, 5% (v/v) suspension of MagStrep ‘type3’ XT beads, IBA Lifesciences) equilibrated in Buffer W, were added. The mixture was gently inverted at 4° C. for 30 min. […] Purified proteins were quantified using the Qubit Protein Assay Kit (Thermo Fisher Scientific). […]

sfGFP^151(AXC) gene = experiment: UBP retention in the sfGFP gene by streptavidin gel shift assay (in vivo screen of dXTPs); assay type: cell-based, E. coli; conditions: dTPT3TP 10 μM, strain YZ3
Procedure: as §1
(§2) Analysis of PCR products. After 2.5 h, plasmids were isolated and then the genes of interest were independently PCR amplified using d5SICSTP and a biotinylated analog of dNaMTP7. The resulting PCR product was analyzed via a gel mobility shift assay using streptavidin to quantify the UBP retained as a percent shift of the total amplified product (hereafter referred to as the streptavidin gel shift assay) (FIG. 3A and FIG. 3B).
In vivo Translation Screen of dXTPs. An overnight culture of the SSO strain YZ3 carrying the pGEX-MbPylRS TetR plasmid was grown in 2×YT supplemented with 50 mM potassium phosphate, […] chloramphenicol and 100 μg/mL carbenicillin (herein referred to in this section as “media”), then diluted back to an OD600 of 0.03 in the same media and grown to an OD600 of 0.4 to 0.6. The culture was then chilled with shaking over ice-water for 15 minutes then pelleted by centrifugation at 3,200×g for 10 min. Cells were then resuspended and washed with ice-cold ddH2O twice then resuspended in ice-cold ddH2O to an OD600 of 55-65. The electrocompetent cells (50 μL) and 1 ng of Golden Gate assembled plasmid with the UBP within the sfGFP and tRNAPyl genes (see Golden Gate Assembly of Plasmids) were transferred to a pre-chilled electroporation cuvette (0.2-cm-gap), then electroporated (Gene Pulser II; Bio-Rad) according to manufacturer's recommendations (voltage […], capacitor 2.5 μF, resistor 200Ω), and then immediately diluted with 950 μL of media. An aliquot (40 μL) of the transformation was then diluted five-fold in media supplemented with dNaMTP (150 μM) and dTPT3TP (10 μM) for a final volume of 200 μL then allowed to recover for 1 h shaking at 37° C. […] The culture was monitored for cell growth (Envision 2103 Multilabel Plate Reader with a 590/20 nm filter) and then collected at an OD600˜1.0. […]

tRNA^Pyl(GYT) gene = experiment: UBP retention in the tRNA gene by streptavidin gel shift assay (in vivo screen of dXTPs); assay type: cell-based, E. coli; conditions: dTPT3TP 10 μM, strain YZ3
Procedure: as §1, §2
In vivo Translation Screen of dXTPs. An overnight culture of the SSO strain YZ3 carrying the pGEX-MbPylRS TetR plasmid was grown in 2×YT supplemented with 50 mM potassium phosphate, […] chloramphenicol and 100 μg/mL carbenicillin (herein referred to in this section as “media”), then diluted back to an OD600 of 0.03 in the same media and grown to an OD600 of 0.4 to 0.6. The culture was then chilled with shaking over ice-water for 15 minutes then pelleted by centrifugation at 3,200×g for 10 min. Cells were then resuspended and washed with ice-cold ddH2O twice then resuspended in ice-cold ddH2O to an OD600 of 55-65. […] The culture was monitored for cell growth (Envision 2103 Multilabel Plate Reader with a 590/20 nm filter) and then collected at an OD600˜1.0. […]

E. coli strain YZ3 = experiment: Cell growth / viability in the in vivo screen of dXTPs; assay type: cell-based; conditions: dXTP 5 μM
Procedure: as §1, with “After an additional 1 h of incubation, the expression of sfGFP^151(AXC) was initiated by the addition of anhydrotetracycline (aTc, 100 ng/mL).” left out
Analysis of reporter protein production. To characterize the amount of protein produced, bulk culture fluorescence normalized to cell growth was measured 2.5 h after the induction of protein expression (FIG. 3C). […] While similar at high concentrations, at lower concentrations the use of each dXTP analog results in a greater AzK-dependent increase in fluorescence than does the use of dNaMTP.
Ten-fold dilutions of the glycerol stock were re-plated onto solid growth media supplemented with dNaMTP (150 μM), dTPT3TP (10 μM), and 2% w/v agar, then grown at 37° C. overnight. […] From this point on, cells were monitored for growth and fluorescence. […]

[3] = dXTP 5 μM (lowest concentration)

| SMILES | sfGFP fluorescence normalized to cell growth (sfGFP^151(AXC) [1]; dXTP 5 μM) | AzK-dependent increase in fluorescence (sfGFP^151(AXC) [1]; lower dXTP concentrations, compared with dNaMTP) | Fidelity of ncAA incorporation (protein shift) (sfGFP^151(AXC) [2]; dXTP 5 μM) | Fidelity of ncAA incorporation (protein shift) (sfGFP^151(AXC) [2]; dXTP 10 μM) | Quantity of pure unnatural protein produced (sfGFP^151(AXC) [2]; especially at lower concentrations) | UBP retention in the sfGFP^151(AXC) gene (sfGFP^151(AXC) gene; [3]) | UBP retention in the sfGFP^151(AXC) gene (sfGFP^151(AXC) gene; dXTP 10 μM) [%] | UBP retention in the tRNA^Pyl(GYT) gene (tRNA^Pyl(GYT) gene; [3]) [%] | UBP retention in the tRNA^Pyl(GYT) gene (tRNA^Pyl(GYT) gene; dXTP 10 μM) [%] | sfGFP fluorescence normalized to cell growth (sfGFP^151(AXC) [1]; dXTP 150 or 10 μM) | UBP retention in the sfGFP^151(AXC) gene (sfGFP^151(AXC) gene; dXTP 150 μM) [%] | Cell growth / survival (E. coli strain YZ3) |
| --- | --- | --- | --- | --- | --- | --- | --- | --- | --- | --- | --- | --- |
| COc1cc(C)c(F)cc1[C@H]1C[C@H](O)[C@@H](COP(=O)(O)OP(=O)(O)OP(=O)(O)O)O1 [d5FMTP] | remained the same | largest AzK-dependent increase in fluorescence | remained similar to that observed at 10 μM | remained high | greatest quantity of pure unnatural protein | 94% and ~93% | 96 | 83 | 82 | – | – | – |
| COc1cc2ccccc2cc1[C@H]1C[C@H](O)[C@@H](COP(=O)(O)OP(=O)(O)OP(=O)(O)O)O1 [dNaMTP] | – | – | – | dropped precipitously | – | – | 73 | – | 71 | significantly less fluorescence at 10 μM than at 150 μM | 99 | not observed; also recorded: did not survive |
